Laboratory results: paper PMC5831858, “Pharmacological characterisation of CR6086, a potent prostaglandin E2 receptor 4 antagonist, as a new potential disease-modifying anti-rheumatic drug” (Arthritis Research & Therapy, 2018)
Entries after “also recorded” stand apart in the source; their conditions may differ. Marks after values point to notes of the source that are not given here.

What was measured:
[1] = tested on: arthritic rats (collagen-induced arthritis model); test: Collagen-induced arthritis in rats: clinical score, oedema, histology; format: in vivo, rat
Description: (§1) Male Lewis rats were immunised by intradermal injection at the base of the tail with an emulsion containing 150 μg of bovine collagen type II (bCII) in complete Freund’s adjuvant (CFA) or received an injection with incomplete Freund’s adjuvant (sham group). Three weeks after the first immunisation, animals were boosted with the same procedure. Three days after booster injection, arthritis had developed in all animals but the sham group. Oedema was assessed via plethysmometer (Ugo Basile, Varese, Italy), and the animals were then randomised to treatment groups. Oedema measurement was performed again after 7 and 14 days of treatment. Animals were blindly scored by two different investigators for clinical signs of arthritis (redness, swelling, pain of hind limb joints) as follows: 0 = normal; 1 = mild but definite redness and swelling of the ankle or wrist or individual digits, regardless of the number of affected digits; 2 = moderate redness and swelling of ankle or wrist; 3 = severe redness and swelling of the entire paw including digits; and 4 = maximally inflamed limb with involvement of multiple joints. The mean of the scores assigned by the investigators was calculated.
Three different experiments in rat CIA are reported: a dose-response study, as well as two comparative studies vs the COX-2 inhibitor rofecoxib and the Janus kinase (JAK) inhibitor tofacitinib, respectively.
Briefly, the paws were fixed in 10% neutral buffered formalin (Bio-Optica, Milan, Italy) and subsequently decalcified in EDTA for 4 weeks. Samples were dehydrated in an ethanol series and embedded in paraffin. At least three non-consecutive sections for each paw were blindly scored at the level of the tarsus, metatarsus and calcaneus for the following histological features: synovial oedema, pannus, synovial inflammatory cell infiltrate, cartilage damage, osteolysis and woven bone. Based on these histological features, a synovial score (synovial oedema, plus synovial inflammatory cell infiltrate, plus pannus), a bone score (woven bone plus osteolysis) and a total score were calculated. Two independent pathologists performed histopathology on blinded slides. The data of right and left hind limbs were summed for each rat.

[2] = tested on: arthritic rats (collagen-induced arthritis model); test: Mechanical hyperalgesia (PAM) in CIA rats; format: in vivo, rat; settings: 15 mg/kg, mean ± SEM
Description: as §1
In the comparative experiment vs rofecoxib, mechanical hyperalgesia was assessed at the end of treatment by using a digital pressure application measurement (PAM) device (Ugo Basile). Increasing pressure was applied to the lateral side of the knee until the animal attempted to escape or vocalised. The force required to elicit this response was measured in grams (gram-force). An optimal stimulus increase rate of 100 g/second was used, and mechanical thresholds were reached after approximately 10 seconds. This increase was visualised with a rate meter on the built-in display, so the pressure applied was visually controlled. At the end of the experiment, animals were killed, and their hind paws were explanted and processed for histology.

[3] = tested on: arthritic mice (collagen-induced arthritis model); test: FACS analysis of cell populations in the joint, CIA mice; format: in vivo, mouse; settings: CR6086 60 mg/kg, naproxen 60 mg/kg, etanercept 10 mg/kg, mean ± SEM
Description: In a first study, mice were randomised into the following treatment groups: vehicle, 30 mg/kg CR6086, 60 mg/kg CR6086, 60 mg/kg naproxen and 10 mg/kg etanercept. Animals received the test drugs for 10 days. CR6086 and naproxen were administered orally once daily, whereas etanercept was administered intraperitoneally every other day. Animals treated with vehicle, 60 mg/kg CR6086, naproxen and etanercept were additionally analysed for the proportion of populations of Th17 cells, Th1 cells, regulatory T cells, B cells, macrophages, neutrophils and dendritic cells by fluorescence-activated cell sorting (FACS) after collection of blood, draining lymph nodes and joints.

[4] = tested on: arthritic mice (collagen-induced arthritis model); test: CIA in mice, second study: serum cytokines and signal limb histology; format: in vivo, mouse; settings: 10 days
EP3 = biological target: T1, EP3 (Homo sapiens, UniProt P43115); test: Eicosanoid receptor EP3 binding; settings: [^3H]PGE2, HEK-293 cells, read-out: CR6086 Activity at 10µM
T1 construct: host or cells: HEK-293 cells

COX-2 = biological target: T2, COX-2 (Homo sapiens, UniProt P35354); test: Cyclooxygenase COX-2 enzymatic activity; format: biochemical; settings: Sf9 cells, read-out: CR6086 Activity at 10µM
T2 construct: host or cells: Sf9 cells

A2A = A2A (Homo sapiens, UniProt P29274); test: Adenosine receptor A2A binding; settings: [^3H]CGS 21680, Human recombinant HEK-293 cells
β2 = β2 (Homo sapiens, UniProt P07550); test: Adrenergic receptor β2 binding; settings: [^3H](-)CGP 12177, Human recombinant CHO cells, read-out: CR6086 Activity at 10µM
CB1 = CB1 (Homo sapiens, UniProt P21554); test: Cannabinoid receptor CB1 binding; settings: [^3H]CP 55940, Human recombinant CHO cells, read-out: CR6086 Activity at 10µM
D3 = D3 (Homo sapiens, UniProt P35462); test: Dopamine receptor D3 binding; settings: [^3H]methyl-spiperone, Human recombinant CHO cells, read-out: CR6086 Activity at 10µM
M1 = M1 (Homo sapiens, UniProt P11229); test: Muscarinic acetylcholine receptor M1 binding; settings: [^3H]pirenzepine, Human recombinant CHO cells, read-out: CR6086 Activity at 10µM
5-HT3 = 5-HT3 (Homo sapiens, UniProt P46098); test: Serotonin receptor 5-HT3 binding; settings: [^3H]BRL 43694, Human recombinant CHO cells, read-out: CR6086 Activity at 10µM
sst (non-selective) = test: sst receptor (non-selective) binding; settings: [^125I]Tyr^11-somatostatin-14, AtT-20 cells
TNF-α = TNF-α receptor binding; settings: [^125I]TNF-α, U-937 cells
[5] = tested on: Ca2+ channel (L, verapamil site); test: Ion channel Ca2+ (L, verapamil site) binding; settings: up to 100µM (cell); [^3H]verapamil [^3H]D888; Rat cerebral cortex
[6] = 30 mg/kg oral daily, mean ± SEM
[7] = 60 mg/kg oral daily, mean ± SEM

Sequence of β2 (P07550 whole entry): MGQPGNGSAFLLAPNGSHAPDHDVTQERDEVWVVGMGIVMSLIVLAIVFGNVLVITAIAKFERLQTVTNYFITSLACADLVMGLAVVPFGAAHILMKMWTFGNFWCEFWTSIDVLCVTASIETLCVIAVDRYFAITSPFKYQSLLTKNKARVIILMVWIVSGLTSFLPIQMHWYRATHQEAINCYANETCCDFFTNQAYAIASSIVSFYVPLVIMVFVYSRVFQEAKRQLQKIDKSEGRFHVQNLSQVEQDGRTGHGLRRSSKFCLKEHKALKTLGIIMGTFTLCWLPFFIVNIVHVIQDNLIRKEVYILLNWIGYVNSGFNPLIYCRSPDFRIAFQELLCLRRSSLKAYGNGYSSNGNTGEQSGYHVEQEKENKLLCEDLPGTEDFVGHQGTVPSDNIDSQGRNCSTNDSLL
T2 sequence (P35354 18-604): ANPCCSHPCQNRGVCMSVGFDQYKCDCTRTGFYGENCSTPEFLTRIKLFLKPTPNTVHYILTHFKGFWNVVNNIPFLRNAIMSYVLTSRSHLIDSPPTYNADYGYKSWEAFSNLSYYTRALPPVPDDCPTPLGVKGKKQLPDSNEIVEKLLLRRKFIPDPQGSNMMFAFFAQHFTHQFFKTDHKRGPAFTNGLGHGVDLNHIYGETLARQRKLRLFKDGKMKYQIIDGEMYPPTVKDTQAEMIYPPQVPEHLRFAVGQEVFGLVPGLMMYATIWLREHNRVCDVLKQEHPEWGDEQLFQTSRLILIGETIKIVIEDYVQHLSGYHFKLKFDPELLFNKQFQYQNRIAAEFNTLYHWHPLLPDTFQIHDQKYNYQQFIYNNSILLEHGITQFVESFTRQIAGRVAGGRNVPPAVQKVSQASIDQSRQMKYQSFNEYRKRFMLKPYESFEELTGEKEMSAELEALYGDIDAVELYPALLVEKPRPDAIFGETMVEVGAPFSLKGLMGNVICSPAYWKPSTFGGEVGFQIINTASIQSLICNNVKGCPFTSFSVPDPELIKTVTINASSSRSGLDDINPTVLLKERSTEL
Sequence of CB1 (P21554 whole entry): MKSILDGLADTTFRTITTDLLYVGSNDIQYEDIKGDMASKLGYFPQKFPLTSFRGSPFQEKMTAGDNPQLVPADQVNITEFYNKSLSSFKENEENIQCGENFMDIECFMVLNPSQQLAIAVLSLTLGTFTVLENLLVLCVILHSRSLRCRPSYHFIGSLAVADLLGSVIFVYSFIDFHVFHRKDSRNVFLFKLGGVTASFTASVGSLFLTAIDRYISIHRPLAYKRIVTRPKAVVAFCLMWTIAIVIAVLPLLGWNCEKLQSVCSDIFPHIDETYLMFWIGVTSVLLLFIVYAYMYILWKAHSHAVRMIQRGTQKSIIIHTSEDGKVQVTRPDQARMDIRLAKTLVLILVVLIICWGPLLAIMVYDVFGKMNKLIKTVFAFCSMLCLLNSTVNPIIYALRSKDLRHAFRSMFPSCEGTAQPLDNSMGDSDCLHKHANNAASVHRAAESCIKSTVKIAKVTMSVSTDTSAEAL
T1 sequence (P43115 whole entry): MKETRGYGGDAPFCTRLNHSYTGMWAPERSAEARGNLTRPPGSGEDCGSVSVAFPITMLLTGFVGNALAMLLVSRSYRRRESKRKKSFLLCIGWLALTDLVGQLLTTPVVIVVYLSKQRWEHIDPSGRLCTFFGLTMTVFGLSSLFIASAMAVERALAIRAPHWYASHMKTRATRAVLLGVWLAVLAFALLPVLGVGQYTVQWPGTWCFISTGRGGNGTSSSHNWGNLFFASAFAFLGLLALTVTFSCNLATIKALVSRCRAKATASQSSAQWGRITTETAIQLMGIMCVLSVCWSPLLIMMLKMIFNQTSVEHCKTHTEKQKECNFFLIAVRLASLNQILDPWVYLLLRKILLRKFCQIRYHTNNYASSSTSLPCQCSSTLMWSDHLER
Sequence of D3 (P35462 whole entry): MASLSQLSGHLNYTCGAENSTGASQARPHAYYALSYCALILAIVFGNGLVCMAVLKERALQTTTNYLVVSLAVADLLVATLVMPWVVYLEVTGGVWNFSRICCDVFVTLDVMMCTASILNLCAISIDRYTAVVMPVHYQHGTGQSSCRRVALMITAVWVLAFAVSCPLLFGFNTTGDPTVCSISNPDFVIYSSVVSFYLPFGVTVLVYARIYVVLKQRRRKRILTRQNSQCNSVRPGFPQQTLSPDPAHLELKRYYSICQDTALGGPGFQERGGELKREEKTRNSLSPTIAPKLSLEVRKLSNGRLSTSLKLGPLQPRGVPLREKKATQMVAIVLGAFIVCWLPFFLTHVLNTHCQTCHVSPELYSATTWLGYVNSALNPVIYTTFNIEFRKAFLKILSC
Sequence of 5-HT3 (P46098 24-478): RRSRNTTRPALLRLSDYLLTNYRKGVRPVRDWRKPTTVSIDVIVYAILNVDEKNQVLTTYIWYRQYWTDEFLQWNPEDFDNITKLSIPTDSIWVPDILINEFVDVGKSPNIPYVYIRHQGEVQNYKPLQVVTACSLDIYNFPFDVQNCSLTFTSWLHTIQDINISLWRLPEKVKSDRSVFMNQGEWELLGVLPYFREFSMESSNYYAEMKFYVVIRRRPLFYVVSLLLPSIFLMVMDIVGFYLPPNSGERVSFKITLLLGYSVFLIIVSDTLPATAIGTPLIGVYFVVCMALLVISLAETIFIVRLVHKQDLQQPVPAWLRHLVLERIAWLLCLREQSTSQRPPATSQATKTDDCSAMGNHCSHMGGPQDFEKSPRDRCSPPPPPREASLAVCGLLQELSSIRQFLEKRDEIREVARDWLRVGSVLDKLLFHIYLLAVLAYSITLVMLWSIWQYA
Sequence of A2A (P29274 whole entry): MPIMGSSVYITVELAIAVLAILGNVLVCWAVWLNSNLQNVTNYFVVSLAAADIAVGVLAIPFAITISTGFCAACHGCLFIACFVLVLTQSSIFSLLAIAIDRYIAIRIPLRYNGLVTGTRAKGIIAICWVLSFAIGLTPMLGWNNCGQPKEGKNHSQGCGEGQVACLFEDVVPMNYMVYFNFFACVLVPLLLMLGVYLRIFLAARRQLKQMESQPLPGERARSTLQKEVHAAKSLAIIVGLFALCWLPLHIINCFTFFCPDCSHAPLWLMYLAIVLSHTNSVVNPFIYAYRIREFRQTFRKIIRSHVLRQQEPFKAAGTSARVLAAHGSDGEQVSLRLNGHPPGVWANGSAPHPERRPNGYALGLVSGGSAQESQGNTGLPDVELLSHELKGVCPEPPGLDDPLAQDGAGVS
Sequence of M1 (P11229 whole entry): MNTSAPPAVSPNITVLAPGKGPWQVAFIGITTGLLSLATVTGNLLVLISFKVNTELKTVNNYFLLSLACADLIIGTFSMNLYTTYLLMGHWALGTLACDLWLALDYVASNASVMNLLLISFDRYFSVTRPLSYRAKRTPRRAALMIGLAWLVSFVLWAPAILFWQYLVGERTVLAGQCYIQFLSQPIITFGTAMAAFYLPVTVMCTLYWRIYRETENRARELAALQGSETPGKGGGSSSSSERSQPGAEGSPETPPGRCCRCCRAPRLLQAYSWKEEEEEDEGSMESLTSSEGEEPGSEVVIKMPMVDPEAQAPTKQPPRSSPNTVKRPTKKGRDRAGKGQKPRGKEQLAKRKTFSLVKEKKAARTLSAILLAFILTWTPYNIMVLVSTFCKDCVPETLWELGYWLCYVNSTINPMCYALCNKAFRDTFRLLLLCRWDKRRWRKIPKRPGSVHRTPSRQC

Q: What does the source list for `O=C([O-])c1ccc(C2(NC(=O)[C@H]3CC4(CCN3Cc3ccc(C(F)(F)F)cc3)CC4)CC2)cc1.[Na+]` [CR6086, Sodium (R)-4-(1-(6-(4-(trifluoromethyl)benzyl)-6-azaspiro[2.5]octane-5-carboxamido)cyclopropyl)benzoate]?
A: effect on structural and inflammatory parameters (oedema, histology) ([1]; 15 mg/kg once daily, 14 days): markedly and significantly improved all the structural and inflammatory parameters; effect on arthritis clinical score and oedema ([1]; 1-10 mg/kg oral daily, 1 h and 24 h post-dosing): significantly and dose-dependently reduced; efficacy relative to active comparators ([1]; CR6086 15 mg/kg once daily, rofecoxib 5–15 mg/kg once daily, tofacitinib 5–25 mg/kg twice daily): more effective than rofecoxib; also recorded: as effective as, but more potent than, tofacitinib; dose at which efficacy plateaued ([1]; oral, once daily, 14 days): around 10 mg/kg; minimum effective dose ([1]; oral, once daily, 14 days): 1 mg/kg; Mechanical hyperalgesia, Day 0 ([2]; Day 0): 850.45 ± 59.57^a gram-force; Mechanical hyperalgesia, Day 7 ([2]; Day 7): 846.33 ± 43.60^b,c gram-force; Mechanical hyperalgesia, Day 14 ([2]; Day 14): 1023.09 ± 53.97^d gram-force; B cells, Percentage of total cells [3]: 6.65 ± 0.72%; Dendritic cells, Percentage of total cells [3]: 1.72 ± 0.44%; Macrophages, Percentage of total cells [3]: 11.14 ± 2.93^a %; Neutrophils, Percentage of total cells [3]: 9.98 ± 2.89^a %; Th1, Percentage of total cells [3]: 0.14 ± 0.03^b %; Th17, Percentage of total cells [3]: 0.06 ± 0.01^b %; Treg, Percentage of total cells [3]: 0.38 ± 0.12%; IFNγ serum concentration [4, 6]: 1.79 ± 0.32 pg/mL; IL-10 serum concentration [4, 6]: 16.17 ± 1.95 pg/mL; IL-17 serum concentration [4, 6]: 2.36 ± 0.62 pg/mL; TNFα serum concentration [4, 6]: 34.37 ± 2.21 pg/mL; IL-10 serum concentration [4, 7]: 18.16 ± 2.65 pg/mL; IL-17 serum concentration [4, 7]: 0.92 ± 0.20 pg/mL; TNFα serum concentration [4, 7]: 33.67 ± 3.58 pg/mL; effect on IL-6 mean serum concentrations ([4]; 60 mg/kg oral once daily): returned towards normal levels; histological scores of the signal limb ([4]; 30 and 60 mg/kg oral once daily): acts as a disease modifier; inhibition at 10 µM (EP3): < 20%; inhibition at 10 µM (COX-2): < 20%; CR6086 Activity at 10µM (A2A): IN (IN = < 20% displacement or inhibition (all tables)); inhibition at 10 µM (β2): < 20%; inhibition at 10 µM (CB1): < 20%; inhibition at 10 µM (D3): < 20%; inhibition at 10 µM (M1): < 20%; inhibition at 10 µM (5-HT3): < 20%; CR6086 Activity at 10µM (sst (non-selective)): IN (IN = < 20% displacement or inhibition (all tables)); CR6086 Activity at 10µM (TNF-α): IN (IN = < 20% displacement or inhibition (all tables)); CR6086 Activity at 10µM [5]: IN up to 100µM (IN = < 20% displacement or inhibition (all tables))
